According to the supplement of paper PMC10307832:

Key:
Experiment in all cases: relative viability (nuclei count vs DMSO), 5 days (fraction); higher = more cells survive
[1] = compound: CS(=O)(=O)N1CCN(Cc2cc3nc(-c4cccc5[nH]ncc45)nc(N4CCOCC4)c3s2)CC1 [Pictilisib] + Cc1cc(Nc2cc(N3CCN(C)CC3)nc(Sc3ccc(NC(=O)C4CC4)cc3)n2)n[nH]1 [Tozasertib] (partner 0.1 µM)
Method in brief: (§1)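 Relative viability divides the nuclei count in treated wells by that in vehicle wells. Lung cancer cell lines were seeded in 1536-well plates, dosed by pin tool the next day, and fixed and stained after 5 days in one step with final 0.05% Triton X-100, 1% formaldehyde and 1 ug/ml Hoechst. Dosing was a single drug or a fixed anchor-drug dose plus five library-drug doses (not always all listed) in √10 steps, and values are medians of duplicate plates imaged at 4×.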

[2] = compound: CS(=O)(=O)N1CCN(Cc2cc3nc(-c4cccc5[nH]ncc45)nc(N4CCOCC4)c3s2)CC1 [Pictilisib] + Cc1nc(NC(=O)N2CCC[C@H]2C(N)=O)sc1-c1ccnc(C(C)(C)C(F)(F)F)c1 [Alpelisib] (partner 2 µM)
Method in brief: as §1

[3] = compound: NC1(c2ccc(-c3nc4ccn5c(=O)[nH]nc5c4cc3-c3ccccc3)cc2)CCC1 [MK-2206] + COc1cc2c(Oc3ccc(NC(=O)C4(C(=O)Nc5ccc(F)cc5)CC4)cc3F)ccnc2cc1OCCCN1CCOCC1 [Foretinib] (partner 0.25 µM)
Method in brief: as §1

[4] = compound: NC1(c2ccc(-c3nc4ccn5c(=O)[nH]nc5c4cc3-c3ccccc3)cc2)CCC1 [MK-2206] + O=C(c1cc(Cc2n[nH]c(=O)c3ccccc23)ccc1F)N1CCN(C(=O)C2CC2)CC1 [Olaparib] (partner 8 µM)
Method in brief: as §1

[5] = compound: NC1(c2ccc(-c3nc4ccn5c(=O)[nH]nc5c4cc3-c3ccccc3)cc2)CCC1 [MK-2206] + CC1(C)CCC(c2ccc(Cl)cc2)=C(CN2CCN(c3ccc(C(=O)NS(=O)(=O)c4ccc(N[C@H](CCN5CCOCC5)CSc5ccccc5)c(S(=O)(=O)C(F)(F)F)c4)cc3)CC2)C1 [Navitoclax] (partner 0.5 µM)
Method in brief: as §1

Row | Cell Line | relative viability ([1]; first compound 0.02 µM) | relative viability ([1]; first compound 0.06325 µM) | relative viability ([1]; first compound 0.6325 µM) | relative viability ([1]; first compound 2 µM) | relative viability ([2]; first compound 0.02 µM) | relative viability ([2]; first compound 0.06325 µM) | relative viability ([2]; first compound 0.6325 µM) | relative viability ([2]; first compound 2 µM) | relative viability ([3]; first compound 0.01 µM) | relative viability ([3]; first compound 0.03162 µM) | relative viability ([3]; first compound 0.3162 µM) | relative viability ([3]; first compound 1 µM) | relative viability ([4]; first compound 0.01 µM) | relative viability ([4]; first compound 0.03162 µM) | relative viability ([4]; first compound 0.3162 µM) | relative viability ([4]; first compound 1 µM) | relative viability ([5]; first compound 0.01 µM) | relative viability ([5]; first compound 0.03162 µM) | relative viability ([5]; first compound 0.3162 µM) | relative viability ([5]; first compound 1 µM)
1 | NCI-H650 | 0.733 | 0.76 | 0.66 | 0.478 | 1.05 | 1.15 | 1 | 0.888 | 0.935 | 1.13 | 1.05 | 1.13 | 0.4 | 0.362 | 0.383 | 0.391 |  |  |  | 
2 | IA-LM |  |  |  |  | 0.732 | 0.982 | 0.749 | 0.418 | 1.06 | 1.11 | 1.07 | 1.19 | 0.869 | 0.791 | 0.993 | 0.781 | 0.724 | 0.835 | 0.801 | 0.669
3 | A-427 | 0.202 | 0.187 | 0.19 | 0.145 | 1.13 | 1.09 | 1.06 | 1.04 | 1.05 | 1.2 | 1.16 | 1.15 | 0.724 | 0.704 | 0.78 | 0.699 | 0.937 | 0.877 | 0.849 | 0.902
4 | NCI-H2347 | 0.512 | 0.517 | 0.462 | 0.285 | 1.1 | 1.09 | 0.912 | 0.873 | 0.877 | 0.818 | 1.15 | 0.723 | 0.618 | 0.541 | 0.58 | 0.503 | 0.752 | 0.883 | 0.684 | 0.883
5 | NCI-H1793 | 0.288 | 0.29 | 0.189 | 0.097 | 0.729 | 0.516 | 0.566 | 0.307 | 0.786 | 0.779 | 0.834 | 0.578 | 0.87 | 1.02 | 0.791 | 0.766 | 0.521 | 0.475 | 0.352 | 0.463
6 | NCI-H1651 | 0.637 | 0.567 | 0.544 | 0.286 | 0.969 | 0.906 | 0.765 | 0.516 | 0.724 | 0.658 | 0.834 | 0.733 | 0.178 | 0.154 | 0.174 | 0.181 | 0.994 | 1.05 | 1.02 | 0.998
7 | HCC-78 | 0.427 | 0.46 | 0.309 | 0.281 | 0.332 | 0.279 | 0.289 | 0.19 | 0.557 |  | 0.496 | 0.459 | 0.932 | 1.06 | 0.716 | 0.739 | 0.735 | 0.875 | 0.732 | 0.488
8 | NCI-H23 | 0.326 | 0.413 | 0.294 | 0.35 | 0.728 | 0.77 | 0.827 | 0.487 | 1.1 | 1.11 | 1.05 | 0.902 | 0.302 | 0.326 | 0.255 | 0.285 | 0.956 | 0.899 | 0.947 | 0.811
9 | LOU-NH91 | 0.744 | 0.664 | 0.566 | 0.495 | 0.742 | 0.741 | 0.697 | 0.585 | 0.984 | 0.958 | 0.927 | 0.917 | 0.901 | 0.98 | 0.91 | 0.847 | 0.702 | 0.745 | 0.749 | 0.621
10 | LXF-289 | 0.224 | 0.215 | 0.155 | 0.0896 | 1.08 | 1.07 | 1.06 | 0.822 | 0.932 | 0.941 | 1.01 | 1.05 | 1.05 | 1.04 | 1.09 | 1.06 | 0.914 | 1.01 | 1.01 | 0.972
11 | NCI-H460 | 0.411 | 0.401 | 0.28 | 0.0523 | 0.509 | 0.521 | 0.301 | 0.141 | 0.984 | 1.06 | 1.1 | 1.04 | 0.397 | 0.465 | 0.484 | 0.5 | 1.16 | 1.16 | 1.21 | 1.07
12 | NCI-H1792 |  |  |  |  | 0.72 | 0.715 | 0.657 | 0.36 |  |  |  |  | 0.497 | 0.514 | 0.532 | 0.264 | 0.603 | 0.706 | 0.655 | 0.578
13 | EMC-BAC-2 | 0.304 | 0.31 | 0.297 | 0.242 | 0.754 | 0.766 | 0.721 | 0.577 | 1.06 | 1.01 | 0.905 | 0.885 | 0.438 | 0.462 | 0.451 | 0.419 | 1.13 | 1.14 | 1.15 | 1.08
14 | CAL-12T | 0.296 | 0.314 | 0.277 | 0.17 | 1.32 | 1.12 | 1.19 | 0.883 | 1.07 | 0.962 | 1.15 | 1.19 | 0.81 | 0.666 | 0.703 | 0.714 | 0.963 | 1.32 | 1.22 | 1.14
15 | ChaGo-K-1 | 0.227 | 0.21 | 0.161 | 0.17 |  |  |  |  | 0.969 | 0.974 | 0.922 | 0.93 | 0.404 | 0.422 | 0.413 | 0.429 | 1.3 | 1.17 | 0.816 | 0.454
16 | COR-L 105 | 0.33 | 0.303 | 0.344 | 0.292 | 1.08 | 0.957 | 0.861 | 0.692 | 1.08 | 0.856 | 0.984 | 1.06 | 0.774 | 0.7 | 0.57 | 0.749 | 0.82 | 0.741 | 0.815 | 0.481
